Experimental data: patent US7635572B2, “Methods for conducting assays for enzyme activity on protein microarrays” (Life Technologies Corporation, priority 2004, dated 2009)

Key:
Assay in all cases: Further analysis of a plurality of inhibitors and a plurality of kinases on microarray (Example IX, Table 5);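 note: inhibition of each kinase by the inhibitors is given as a qualitative level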;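 for Inhibition level, FGFR2: level 0 none or unclear then 1 little or marginal then 2 substantial inhibition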;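 for Inhibition level, Homo sapiens in: level 0 none or unclear Level 1 marginal Level 2 substantial inhibition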;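 for Inhibition level, Homo sapiens, o: level 0 none or unclear Level 1 marginal Level 2 substantial inhibition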;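 for Inhibition level, LOC57118: level 0 none or unclear then 1 little or marginal then 2 substantial inhibition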;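 for Inhibition level, TBK1: level 0 no or unclear inhibition to Level 2 substantial inhibition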
Format in all cases: biochemical
[1] = test system: plurality of kinases (Table 5); settings: for Inhibition level, Homo sapiens c: plate F4; for Inhibition level, Homo sapiens, o: plate F5; for Inhibition level, Homo sapiens, B: plate F7; for Inhibition level, Homo sapiens in: plate F9; for Inhibition level, Homo sapiens p: plate F10
[2] = biological target: plurality of kinases (Table 5) (Homo sapiens, UniProt Q00536); settings: plate A3; inhibitor 100 uM
plurality of kinases (Table 5) (Homo sapiens, UniProt Q00536), sequence (Q00536 whole entry): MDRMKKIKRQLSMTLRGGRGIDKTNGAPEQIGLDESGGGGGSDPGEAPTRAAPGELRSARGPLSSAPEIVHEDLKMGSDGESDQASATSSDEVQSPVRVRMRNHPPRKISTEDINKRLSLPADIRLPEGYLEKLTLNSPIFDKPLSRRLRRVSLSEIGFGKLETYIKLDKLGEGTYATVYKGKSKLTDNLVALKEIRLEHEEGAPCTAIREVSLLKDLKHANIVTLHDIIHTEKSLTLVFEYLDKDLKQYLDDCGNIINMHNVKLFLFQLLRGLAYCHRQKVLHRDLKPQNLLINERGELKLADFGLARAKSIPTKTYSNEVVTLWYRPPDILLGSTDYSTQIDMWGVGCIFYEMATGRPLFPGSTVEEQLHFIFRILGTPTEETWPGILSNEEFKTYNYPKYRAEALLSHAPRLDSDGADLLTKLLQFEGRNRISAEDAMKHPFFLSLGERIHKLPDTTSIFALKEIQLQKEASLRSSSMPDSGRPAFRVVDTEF

[3] = biological target: T1, plurality of kinases (Table 5) (Homo sapiens, UniProt Q12866); settings: plate B11; inhibitor 100 uM
T1 sequence (Q12866 21-999): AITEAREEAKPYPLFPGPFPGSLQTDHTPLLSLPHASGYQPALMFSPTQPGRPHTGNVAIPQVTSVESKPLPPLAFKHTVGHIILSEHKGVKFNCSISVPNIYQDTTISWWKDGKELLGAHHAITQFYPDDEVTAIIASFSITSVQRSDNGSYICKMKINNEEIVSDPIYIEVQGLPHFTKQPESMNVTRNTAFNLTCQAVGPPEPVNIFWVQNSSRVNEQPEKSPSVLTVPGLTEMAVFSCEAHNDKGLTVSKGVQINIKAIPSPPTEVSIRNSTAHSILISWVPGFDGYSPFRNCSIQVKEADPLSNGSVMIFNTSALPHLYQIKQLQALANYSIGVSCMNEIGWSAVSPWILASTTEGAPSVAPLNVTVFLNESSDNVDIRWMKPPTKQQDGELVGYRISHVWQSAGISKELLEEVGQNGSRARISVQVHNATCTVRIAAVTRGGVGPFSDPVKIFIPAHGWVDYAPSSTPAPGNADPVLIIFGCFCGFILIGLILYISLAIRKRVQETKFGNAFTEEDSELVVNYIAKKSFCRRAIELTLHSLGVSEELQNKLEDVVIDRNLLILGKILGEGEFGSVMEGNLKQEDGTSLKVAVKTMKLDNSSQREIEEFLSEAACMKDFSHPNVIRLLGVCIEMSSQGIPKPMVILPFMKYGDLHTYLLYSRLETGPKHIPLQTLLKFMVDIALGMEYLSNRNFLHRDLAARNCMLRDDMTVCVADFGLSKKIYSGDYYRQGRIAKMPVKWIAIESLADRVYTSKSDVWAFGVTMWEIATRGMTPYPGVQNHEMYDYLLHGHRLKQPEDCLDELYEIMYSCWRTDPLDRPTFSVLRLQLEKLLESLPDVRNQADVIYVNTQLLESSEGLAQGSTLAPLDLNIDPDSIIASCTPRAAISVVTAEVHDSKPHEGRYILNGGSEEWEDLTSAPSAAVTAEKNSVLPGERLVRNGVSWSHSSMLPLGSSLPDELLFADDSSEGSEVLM

[4] = biological target: plurality of kinases (Table 5) (Homo sapiens, UniProt P07948); settings: plate A5, Domain 0
plurality of kinases (Table 5) (Homo sapiens, UniProt P07948), sequence (P07948 whole entry): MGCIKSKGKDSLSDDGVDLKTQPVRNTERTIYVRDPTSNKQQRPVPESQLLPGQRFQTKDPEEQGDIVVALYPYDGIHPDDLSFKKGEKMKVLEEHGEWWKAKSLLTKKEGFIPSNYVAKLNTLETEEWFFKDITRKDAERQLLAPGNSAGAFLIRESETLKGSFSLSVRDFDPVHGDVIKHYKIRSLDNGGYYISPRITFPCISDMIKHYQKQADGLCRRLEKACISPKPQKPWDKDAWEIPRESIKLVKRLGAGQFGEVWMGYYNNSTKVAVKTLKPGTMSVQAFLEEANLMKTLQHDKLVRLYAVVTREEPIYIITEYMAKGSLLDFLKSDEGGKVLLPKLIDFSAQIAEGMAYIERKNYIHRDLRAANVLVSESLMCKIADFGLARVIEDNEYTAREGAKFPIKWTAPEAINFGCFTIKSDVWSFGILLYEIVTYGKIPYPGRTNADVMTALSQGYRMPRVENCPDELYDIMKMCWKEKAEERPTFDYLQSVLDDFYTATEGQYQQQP

[5] = biological target: plurality of kinases (Table 5) (Homo sapiens, UniProt P21802)
plurality of kinases (Table 5) (Homo sapiens, UniProt P21802), sequence (P21802 22-821): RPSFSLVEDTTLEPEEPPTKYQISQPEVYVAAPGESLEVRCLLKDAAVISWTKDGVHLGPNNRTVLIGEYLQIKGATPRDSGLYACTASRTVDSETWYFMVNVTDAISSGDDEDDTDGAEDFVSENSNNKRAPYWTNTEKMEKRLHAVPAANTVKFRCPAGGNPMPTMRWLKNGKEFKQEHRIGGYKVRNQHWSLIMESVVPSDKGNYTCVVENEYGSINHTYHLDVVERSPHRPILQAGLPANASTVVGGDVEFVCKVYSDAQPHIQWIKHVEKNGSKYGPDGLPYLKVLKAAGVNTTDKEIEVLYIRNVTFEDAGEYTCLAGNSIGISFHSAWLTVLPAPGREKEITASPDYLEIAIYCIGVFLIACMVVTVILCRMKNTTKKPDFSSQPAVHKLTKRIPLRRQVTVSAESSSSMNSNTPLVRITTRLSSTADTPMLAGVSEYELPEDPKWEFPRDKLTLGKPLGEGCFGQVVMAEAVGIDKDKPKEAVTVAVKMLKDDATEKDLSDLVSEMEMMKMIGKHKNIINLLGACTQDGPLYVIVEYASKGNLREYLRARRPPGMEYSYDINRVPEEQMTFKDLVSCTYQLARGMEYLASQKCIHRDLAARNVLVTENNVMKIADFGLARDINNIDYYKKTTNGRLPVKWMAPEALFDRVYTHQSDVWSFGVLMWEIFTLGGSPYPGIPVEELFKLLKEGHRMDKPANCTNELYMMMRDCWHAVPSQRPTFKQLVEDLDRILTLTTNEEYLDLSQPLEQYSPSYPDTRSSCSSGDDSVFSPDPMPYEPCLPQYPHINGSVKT

[6] = biological target: plurality of kinases (Table 5) (Homo sapiens, UniProt P11362); settings: plate D12; inhibitor 100 uM
plurality of kinases (Table 5) (Homo sapiens, UniProt P11362), sequence (P11362 22-822): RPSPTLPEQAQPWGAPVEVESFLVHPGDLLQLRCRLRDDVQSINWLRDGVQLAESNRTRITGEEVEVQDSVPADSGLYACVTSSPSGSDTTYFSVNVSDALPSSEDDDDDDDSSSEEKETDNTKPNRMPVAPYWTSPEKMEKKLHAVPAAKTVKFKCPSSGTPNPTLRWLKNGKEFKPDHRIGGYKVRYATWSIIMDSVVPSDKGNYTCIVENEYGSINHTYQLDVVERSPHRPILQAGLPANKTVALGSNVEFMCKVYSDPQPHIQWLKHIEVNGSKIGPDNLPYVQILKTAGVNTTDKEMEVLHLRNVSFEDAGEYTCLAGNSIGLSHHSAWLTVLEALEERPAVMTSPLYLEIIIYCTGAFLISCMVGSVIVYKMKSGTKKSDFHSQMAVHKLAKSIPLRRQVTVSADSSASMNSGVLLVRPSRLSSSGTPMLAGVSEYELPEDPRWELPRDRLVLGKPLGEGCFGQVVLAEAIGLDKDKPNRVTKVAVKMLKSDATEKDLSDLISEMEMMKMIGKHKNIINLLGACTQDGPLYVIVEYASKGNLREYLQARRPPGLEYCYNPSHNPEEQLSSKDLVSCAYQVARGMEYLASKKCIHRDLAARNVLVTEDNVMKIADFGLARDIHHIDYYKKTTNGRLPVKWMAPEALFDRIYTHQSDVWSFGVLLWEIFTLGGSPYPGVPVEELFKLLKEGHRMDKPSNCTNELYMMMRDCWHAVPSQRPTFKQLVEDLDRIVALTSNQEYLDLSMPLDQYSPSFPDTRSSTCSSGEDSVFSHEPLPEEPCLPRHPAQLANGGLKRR

[7] = biological target: T2, plurality of kinases (Table 5) (Homo sapiens, UniProt Q8IV63); settings: plate C12
T2 sequence (Q8IV63 1-474): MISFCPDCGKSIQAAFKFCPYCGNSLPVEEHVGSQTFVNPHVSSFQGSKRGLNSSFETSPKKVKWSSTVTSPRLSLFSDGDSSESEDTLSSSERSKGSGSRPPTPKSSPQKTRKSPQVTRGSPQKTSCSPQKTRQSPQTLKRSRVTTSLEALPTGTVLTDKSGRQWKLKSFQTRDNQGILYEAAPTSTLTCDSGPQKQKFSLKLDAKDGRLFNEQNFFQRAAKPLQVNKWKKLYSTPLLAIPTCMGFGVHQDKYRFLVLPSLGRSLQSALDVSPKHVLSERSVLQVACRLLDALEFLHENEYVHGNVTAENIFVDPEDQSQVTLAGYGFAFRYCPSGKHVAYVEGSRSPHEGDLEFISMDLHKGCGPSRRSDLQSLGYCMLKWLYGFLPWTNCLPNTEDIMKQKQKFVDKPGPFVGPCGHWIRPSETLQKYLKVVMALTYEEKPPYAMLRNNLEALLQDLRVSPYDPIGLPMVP

[8] = biological target: T3, plurality of kinases (Table 5) (Homo sapiens, UniProt Q9UHD2); settings: plate G1; inhibitor 100 uM
T3 sequence (Q9UHD2 1-729): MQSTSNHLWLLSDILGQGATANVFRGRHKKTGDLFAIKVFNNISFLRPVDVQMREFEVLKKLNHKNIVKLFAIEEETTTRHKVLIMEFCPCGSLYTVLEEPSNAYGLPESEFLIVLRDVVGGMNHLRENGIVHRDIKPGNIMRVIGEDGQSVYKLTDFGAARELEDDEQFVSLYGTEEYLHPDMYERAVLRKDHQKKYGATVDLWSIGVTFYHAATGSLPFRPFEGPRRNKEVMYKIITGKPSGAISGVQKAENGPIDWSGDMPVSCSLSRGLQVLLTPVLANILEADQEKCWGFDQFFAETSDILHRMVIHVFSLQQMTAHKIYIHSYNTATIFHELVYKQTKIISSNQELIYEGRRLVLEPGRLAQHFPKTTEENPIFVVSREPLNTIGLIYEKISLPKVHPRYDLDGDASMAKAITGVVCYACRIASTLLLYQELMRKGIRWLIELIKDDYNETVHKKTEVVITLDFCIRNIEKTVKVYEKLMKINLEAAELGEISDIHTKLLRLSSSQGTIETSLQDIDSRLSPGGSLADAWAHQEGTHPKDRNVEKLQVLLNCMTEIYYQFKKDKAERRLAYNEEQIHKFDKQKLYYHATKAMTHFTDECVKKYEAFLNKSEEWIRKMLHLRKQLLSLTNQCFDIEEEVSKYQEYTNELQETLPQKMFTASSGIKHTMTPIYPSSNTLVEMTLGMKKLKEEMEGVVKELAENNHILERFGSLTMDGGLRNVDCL

[9] = biological target: plurality of kinases (Table 5) (Homo sapiens, UniProt Q8IU85); settings: plate D2; inhibitor 100 uM
plurality of kinases (Table 5) (Homo sapiens, UniProt Q8IU85), sequence (Q8IU85 whole entry): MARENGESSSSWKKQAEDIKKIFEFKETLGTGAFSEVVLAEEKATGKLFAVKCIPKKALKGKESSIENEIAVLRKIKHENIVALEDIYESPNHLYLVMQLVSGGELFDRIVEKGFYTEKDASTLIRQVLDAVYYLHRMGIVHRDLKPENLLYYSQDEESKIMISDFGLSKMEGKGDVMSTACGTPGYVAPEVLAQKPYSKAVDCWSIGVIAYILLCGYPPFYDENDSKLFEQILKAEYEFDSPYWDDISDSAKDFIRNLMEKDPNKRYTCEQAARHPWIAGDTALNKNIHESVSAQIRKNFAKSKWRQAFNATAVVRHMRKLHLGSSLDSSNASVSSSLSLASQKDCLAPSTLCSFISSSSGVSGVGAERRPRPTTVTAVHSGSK

SMILES | Inhibition level, Homo sapiens, S ([1]; plate E9, inhibitor 100 uM) | Inhibition level, Homo sapiens, s ([1]; plate E11, inhibitor 100 uM) | Inhibition level, Homo sapiens, s ([1]; plate F3, inhibitor 100 uM) | Inhibition level, Homo sapiens c ([1]; inhibitor 100 uM) | Inhibition level, Homo sapiens, o ([1]; inhibitor 100 uM) | Inhibition level, Homo sapiens, S ([1]; plate F6, inhibitor 100 uM) | Inhibition level, Homo sapiens, B ([1]; inhibitor 100 uM) | Inhibition level, Homo sapiens, s ([1]; plate F8, inhibitor 100 uM) | Inhibition level, Homo sapiens in ([1]; inhibitor 100 uM) | Inhibition level, Homo sapiens p ([1]; inhibitor 100 uM) | Inhibition level, PCTK1 [2] | Inhibition level, MERTK [3] | Inhibition level, LYN ([4]; inhibitor 100 uM) | Inhibition level, FGFR2 ([5]; plate B4, inhibitor 100 uM) | Inhibition level, FGFR2 ([5]; plate G8, inhibitor 100 uM) | Inhibition level, FGFR1 [6] | Inhibition level, LOC51231 ([7]; inhibitor 100 uM) | Inhibition level, TBK1 [8] | Inhibition level, LOC57118 [9] | further results
O=c1c(-c2ccc(O)cc2)coc2cc(O)cc(O)c12 [Genistein] | 2 | 2 | 1 | 2 | 2 | 0 | 2 | 0 | 1 | 2 | 1 | 2 | 2 | 2 | 2 | 0 | 2 | 2 | 0 | Inhibition level, Homo sapiens, s ([1]; plate F3, Genistein, conc. not given): 0; Inhibition level, Homo sapiens, o ([1]; Genistein, conc. not given): 0; Inhibition level, Homo sapiens, S ([1]; plate F6, Genistein, conc. not given): 0; Inhibition level, Homo sapiens, B ([1]; Genistein, conc. not given): 0; Inhibition level, Homo sapiens, s ([1]; plate F8, Genistein, conc. not given): 0; Inhibition level, Homo sapiens in ([1]; Genistein, conc. not given): 0; Inhibition level, Homo sapiens p ([1]; Genistein, conc. not given): 2; Inhibition level, LYN ([4]; Genistein <3.7 mM): 2; Inhibition level, FGFR2 ([5]; plate B4, Genistein, conc. not given): 1; Inhibition level, FGFR2 ([5]; plate G8, Genistein <3.7 mM): 0; Inhibition level, LOC51231 ([7]; Genistein <3.7 mM): 0
Cn1cc(C2=C(c3cn(CCCSC(=N)N)c4ccccc34)C(=O)NC2=O)c2ccccc21 [Ro-31-8220] | 0 | 2 | 2 | 2 | 2 | 2 | 0 | 0 | 0 | 2 | 0 | 2 | 2 | 2 | 2 | 2 | 2 | 2 | 0 | Inhibition level, Homo sapiens, s ([1]; plate F3, Ro-31-8220, conc. not given): 2; Inhibition level, Homo sapiens, o ([1]; Ro-31-8220, conc. not given): 0; Inhibition level, Homo sapiens, S ([1]; plate F6, Ro-31-8220, conc. not given): 0; Inhibition level, Homo sapiens, B ([1]; Ro-31-8220, conc. not given): 2; Inhibition level, Homo sapiens, s ([1]; plate F8, Ro-31-8220, conc. not given): 2; Inhibition level, Homo sapiens in ([1]; Ro-31-8220, conc. not given): 2; Inhibition level, Homo sapiens p ([1]; Ro-31-8220, conc. not given): 2; Inhibition level, LYN ([4]; Ro-31-8220 90 uM): 0; Inhibition level, FGFR2 ([5]; plate B4, Ro-31-8220, conc. not given): 0; Inhibition level, FGFR2 ([5]; plate G8, Ro-31-8220 90 uM): 2; Inhibition level, LOC51231 ([7]; Ro-31-8220 90 uM): 0
